US20260092085A1, “SYNTHETIC TRIPLEX PEPTIDE NUCLEIC ACID-BASED INHIBITORS FOR CANCER THERAPY” (University of Connecticut, priority 2022, published 2026)

How the values were obtained:
U2932 cells [1] = experiment: Cell viability by trypan blue assay, U2932; assay type: cell-based, human
Description: (§1) Cell viability was performed using trypan blue-based assay (n=3 technical triplicate), data represented as mean±(SEM), * represents the statistical analysis were performed relative to Scr-γtcPNA-155 and ♦ represent analysis performed relative to PNA-155. *p<0.05, **p<0.01, ***p<0.001 and ****p<0.0001, ♦p<0.05, ♦♦p<0.01, unpaired two-tailed t-test was used for statistical analysis. The experiment was repeated three times and in triplicate.
(§2) Cell viability was performed using trypan blue-based assay (n=3), data represented as mean±standard error mean (SEM), *p<0.05, **p<0.01. Unpaired two-tailed t-test was used for statistical analysis.
(§3) Cell viability was performed using trypan blue-based assay (n=3), data represented as mean±standard error mean (SEM).
(§4) Cell viability by trypan blue assay: Diffused large B cell lymphoma (DLBCL) cell lines like SUDHL-2 (ATCC® CRL-2956™) and SUDHL-5 (ATCC® CRL-2958™) cells were purchased from ATCC (Virginia, USA). The cells were regularly tested for Mycoplasma contamination using MycoAlert™ Mycoplasma detection kit (Lonza). All the cells used in the experiment were passaged less than 8 times. 10,000 U2932, SUDHL-5, or SUDHL-2 cells were plated in a 96 well plate. The cells were treated with different doses (500 nM, 1000 nM, 2000 nM and 4000 nM) of PNA-155, gamma tcPNA-155 or Scr-γtcPNA-155 for 48 hrs in an incubator (37° C. and 5% CO2). The dead cells were marked with trypan blue. Further counting was performed using an automated cell counter (Bio-rad).

SUDHL-2 cells = experiment: Cell viability by trypan blue assay, SUDHL-2; assay type: cell-based
Description: as §1, §2, §3, §4

U2932 cells [2] = experiment: Annexin V-based apoptosis assay in U2932 cells; assay type: cell-based, human; conditions: 48 hours
Description: Quantification of apoptotic cells by flow cytometry after treating U2932 cells with PBS as a control and 500 nM Scr-γtcPNA-155, PNA-155, γPNA-155 and γtcPNA-155 for 48 hours. The apoptotic cells and necrotic were stained using Phycoerythrin (PE) Annexin V and 7-Amino-Actinomycin (7-AAD) respectively. The % apoptotic cells after treatment was compared to the PBS treated cells, by setting the same threshold. Bar graph of % apoptotic cells (n=3 technical triplicate), data represented as mean±standard error mean (SEM), *p<0.05, **p<0.01, ***p<0.001, unpaired two-tailed t-test was used for statistical analysis. Representative dot plots of Scr-γtcPNA-155 and γtcPNA-155 treated U2932 cells. The experiment was repeated three times and in triplicate. One out of three representative experiments are shown.
The apoptotic cells and necrotic were stained using Phycoerythrin (PE) Annexin V and 7-Amino-Actinomycin (7-AAD) respectively. The % apoptotic cells after treatment was compared to the PBS treated cells, by setting the same threshold. Bar graph of % apoptotic cells (n=3 technical triplicate), data represented as mean±standard error mean (SEM), **p<0.01, unpaired two-tailed t-test was used for statistical analysis. Representative dot plots of PBS treated and γtcPNA-155 treated U2932 cells. The experiment was repeated three times and in triplicate. One out of three representative experiments is shown.
Apoptosis Assay: 400,000 U2932 cells were seeded in a 12 well plate. The cells were treated with 500 nM PNA-155, γPNA-155, γtcPNA-155, Scr-γ tcPNA-155 or were PBS treated (control) for 48 hrs in an incubator (37° C., 5% CO2). The cells were washed with PBS twice. The cells were centrifuged at 2000 rpm for 4 mins at 4° C. The cell pellet was suspended in IX Annexin V binding buffer. The cells were then counted and 100 μL of cell suspension (containing 2.5×10^5 cells) was passed through the FACS tube. […] 400 μL of IX Annexin V binding buffer was added to the cells and the cells were then analyzed using LSR Fortessa™ X-20 Cell analyzer as indicated above. […]

SUDHL-5 cells = experiment: Cell viability by trypan blue assay, SUDHL-5; assay type: cell-based
Description: as §1, §2, §3, §4

## γtcPNA-155: serine gamma tail-clamp anti-miR-155 PNA, RR-TJJJJ-OOO-ACCCCTATCACGATTAGCATTAA-RR, SEQ ID NO: 3 (all peptide nucleic acid (PNA); serine gamma PNA, tail-clamp TJJJJ via linkers, Arg-Arg at both ends)
U2932 cells [1]; U2932, 500 nM, compared to PNA-155 treated group
  reduction in cell viability at 500 nM: significant reduction in cell viability
U2932 cells [1]; U2932, 4UM, 48 hours
  decrease in cell viability: ~80%
SUDHL-2 cells; SUDHL-2, 500 nM, compared to PNA-155 treated group
  reduction in cell viability at 500 nM: significant reduction in cell viability
SUDHL-2 cells; SUDHL-2, 4UM, 48 hours
  decrease in cell viability: ~80%
U2932 cells [2]; U2932, 500 nM
  apoptosis by Annexin-V FITC confocal imaging: higher apoptosis
U2932 cells [2]; U2932, 500 nM, versus PNA-155 and γPNA-155 treated group
  apoptosis by annexin V flow cytometry: increased apoptosis
U2932 cells [2]; U2932, 10 uM
  increase in apoptosis in comparison to control: 4.5 fold
SUDHL-5 cells; SUDHL-5, 500 nM, compared to PNA-155 treated group
  reduction in cell viability at 500 nM: significant reduction in cell viability
SUDHL-5 cells; SUDHL-5, 4UM, 48 hours
  decrease in cell viability: ~80%
